Test results from patent publication US7704699B2, “Method for the characterization of the three-dimensional structure of proteins employing mass spectrometric analysis and computational feedback modeling” (H-NU OPS, Inc., priority 1993, dated 2010).

Tested on: cytochrome c; horse tuna and yeast
Assay: ES-MS study of non-covalent interactions of crown ethers with three types of cytochrome c (rank order)
Type: binding
Conditions: rank among the three crown ethers, all three cytochrome c types
Description: […]; horse tuna and yeast, utilizing the ES probe 50 and method of this invention.
More particularly, the experiments showing binding of crowns to cytochrome c were done by adding 1, 2, and 3 mol ratios to a 70 pmol/μL mixture of the three different cytochrome c's. The solutions were prepared with equal parts of methanol/water with 1% acetic acid. Typical sample conditions were, 95° C., 2 μL/min, 4000 VDC on the syringe, 170 VDC on the capillary tube, and 60 VDC on the skimmer.

relative tightness of binding to cytochrome c | SMILES
binding the most tightly | C1CCC2OCCOCCOC3CCCCC3OCCOCCOC2C1 (centres unmarked) [Dicyclohexano-18-Crown-6, dicyclohexano-18-crown-6]
binding the least tightly | c1ccc2c(c1)OCCOCCOc1ccccc1OCCOCCO2 [Dibenzo-18-Crown-6, dibenzo-18-crown-6]
